Test [1] deals with RAW264.7 macrophages. In words: Confocal fluorescence microscopy, intracellular localization of inclusions. Type of test: cell-based. The conditions noted are these: 5 × 10^−6 M, 72 h, live cells. The method, then: Confocal Fluorescent Microscopy: A Nikon A1 confocal microscope was used for further investigation of live cells incubated with chiral pairs of compounds (T and U) and the parent compound, P. Since crystals or vesicular forms containing chemicals inside the cells incubated with Compound P, T, or U were fluorescent when viewed with the TRITC filter sets, intracellular distribution of these compounds in RAW264.7 or MDCK cells were visualized using a Nikon A1 confocal microscopy (Nikon Instruments Inc., Melville, NY) equipped with diode‐based lasers and a Nikon Apo 60×/1.4 NA oil immersion lens. Briefly, RAW264.7 macrophages or MDCK epithelial cells were seeded in the 8‐well Nunc Lab‐Tek II chambered (#1.5) cover glasses (Thermo Scientific, Pittsburgh, PA) at a density of 8 × 10^3 cells cm^−2 (RAW264.7 cells) or 1.5 × 10^4 cells cm^−2 (MDCK cells) and allowed to adhere overnight (37 °C, 5% CO2). Then, 5 × 10^−6 M of Compound “P” or the related isomers, “T” or “U” in DMEM with 5% FBS (300 μL) was added to the cells and the cells were incubated for 72 h (37 °C, 5% CO2). For live cell imaging, after the removal of media, cells were washed with HBSS buffer twice. Hoechst 33342 (Invitrogen, Carlsbad, CA) was used for staining cell nuclei and FM 1‐43 (Molecular Probes T35356, Invitrogen) for the plasma membrane. Cells were incubated with 300 μL of 1:1 (v/v) dye mixtures of 5 μg mL^−1 Hoechst 33342 and 7 × 10^−6 M FM 1‐43 in HBSS for 15 min at room temperature. Without fixative, the confocal imaging of the live cells was performed using lasers for DAPI (excitation/emission wavelength: 405 nm/450 ± 25 nm), FITC (488 nm/525 ± 25 nm), and TRITC (561 nm/596 ± 25 nm) channels. Z‐stack images of the cells were captured along the Z‐axis (interval, 1 μm) in three fluorescence channels and analyzed by using the Nikon NIS‐Elements 3.2 confocal software (Nikon Instruments Inc., Melville, NY). […]

The subject of another test is MDCK epithelial cells. The experiment in a line: Linear diattenuation anisotropy microscopy (LC-PolScope) of intracellular inclusions. Type of test: cell-based, Canine. The conditions noted are these: 72 h, compared with clofazimine. The procedure:
(§1) The optical design was built on a Nikon Eclipse Ti microscope equipped with the liquid crystal universal compensator consisting of a linear polarizer and a pair of liquid crystal devices. The LC compensator was part of the transillumination path and was used to illuminate the specimen with monochromatic, linearly polarized light of varying polarization orientation. There was no polarization analyzer present in the imaging path. Quantitative intensity images were recorded by a charge‐coupled device camera and a desktop computer calculated the average transmittance, the differential transmittance and the polarization orientation leading to maximum transmittance for each optically resolved picture element (pixel). Acquisition and processing steps were controlled using OpenPolScope plugins for the open source imaging programs ImageJ and Micro‐Manager (MMStudio version 1.4.15). With the combination of hardware and software, polarized light images were acquired at high sensitivity and high spatial resolution for measuring linear diattenuation.
(§2) Linear Diattenuation Microscopy Data Acquisition and Analysis: After RAW264.7 macrophages or MDCK epithelial cells were incubated with the compound in the chambered cover glasses for 72 h, at the same time of performing transmitted microscopic examination, cell specimens were examined under linear diattenuation microscopy using the Nikon Eclipse Ti microscope with 40×/0.75 NA objective and monochromatic light of two different center wavelengths, 546 and 623 nm (passband 30 nm). In the OpenPolScope software, Pol‐Acquisition and Pol‐Analyzer plugins (version 2.0) were used to capture, process, and analyze the attenuation images. Before imaging the samples, the setup was calibrated using a specially prepared slide featuring four small pieces of linear polarization filters. The transmission axes of the filters were oriented in steps of 45° providing a means to calibrate the LC universal compensator settings. After the calibration, a sample slide was inserted and first a sequence of polarized light images of a clear, fully transmitting sample area was recorded, followed by an image sequence featuring the cells under investigation. The images of the clear area were used to determine instrument factors which were needed for computing the average and the polarization dependent loss in transmittance in cellular components visible in the second image.10
(§3) Linear diattenuation is a material property that can occur in materials such as crystals, in which the light absorbing molecules are arranged with a preferred orientation. The molecular alignment creates principal axes in the material denoting polarization directions for which light is maximally and minimally transmitted. Diattenuation is the difference between maximal (T max) and minimal (T min) transmittance, divided by their sum (Equation (1)): (1) Diattenuation=Tmax‐Tmin/Tmax+Tmin
(§4) To simultaneously measure the attenuation of many crystals with arbitrary orientations, we developed algorithms based on four specimen images, each recorded using light of a different polarization orientation: 0°, 45°, 90°, and 135°.10 The four raw images were used to calculate the average and differential transmittance and the orientation of maximum transmittance in every resolved image pixel. To isolate and analyze quantitative data of the objects (crystals), the anisotropy or maximum transmittance axis orientation image file opened in ImageJ was inverted (Ctrl + Shift + I) and thresholded using ImageJ's default automatic method (“Binary” → “Convert to Mask”). By using the ImageJ's algorithm, “Analyze Particles,” data of anisotropy or maximum transmittance axis orientation of objects in images could be obtained automatically. Diattenuation ratios were calculated by dividing anisotropy at 623 nm by that at 546 nm.

Test [2] relates to RAW264.7 macrophages. The test is described as above. Type of test: cell-based. The settings on record: 72 h, compared with clofazimine. The procedure: as §1, §2, §3, §4

Structures are written as SMILES.

Turning to `Clc1ccc(Nc2cc3nc4ccccc4n(-c4ccc(Cl)cc4)c-3cc2=NCCc2ccccc2)cc1` [Compound P], the “Intracellular localization of compound (fluorescence, TRITC channel)” value in the test with RAW264.7 macrophages [1] is reported as “localized at the periphery of the cell nuclei”. The “Diattenuation anisotropy of intracellular inclusions” value in the test with MDCK epithelial cells and in the test with RAW264.7 macrophages [2] was “higher diattenuation anisotropy” in each case.
On to `C[C@@H](CN=c1cc2n(-c3ccc(Cl)cc3)c3ccccc3nc-2cc1Nc1ccc(Cl)cc1)c1ccccc1` [Compound U], for which, in the test on RAW264.7 macrophages [1], the “Intracellular localization of compound (fluorescence, TRITC channel)” value is recorded as “localized at the periphery of the cell nuclei”. For the same molecule, the “Diattenuation anisotropy of intracellular inclusions” value is reported as “only in macrophages” in the test with MDCK epithelial cells and “even higher anisotropy” in the test with RAW264.7 macrophages [2].
